According to US7507749B2, “Antitumor agents” (priority 2001, dated 2009):
Like-named read-outs stand apart in the source and are kept apart here.

Test system: colon carcinoma 26
Method: In this trial the R-enantiomers of XK-469, compound 22c, and compound 22b were compared against advanced staged colon carcinoma 26 in female Balb/c mice. […] Cage #2 was 22b at 400 mg/kg and Cage #4 was 22c at 400 mg/kg.
The XK469-R, 22b, and 22c compound doses were all prepared the same, using 3% ethanol, 1% POE-80, and 0.5% sodium bicarbonate. The injection volume was 0.2 mu/mouse IV. […] The mice were Balb/c female mice: DOB Feb. 12, 2001; DOA Mar. 27, 2001; DOT Sep. 8, 2001, with an average body weight of 24.7 grams at the start of Rx administration. The tumor was Colon Carcinoma-26 passage 141; date of implant Sep. 8, 2001, and implanted at 30 to 60 mg fragments bilaterally SC. All tumors were 63 to 171 mg on day 6, the day of first Rx.

[1] = Cg 8, IV 110 mg/kg/inj days 6,10, total 220 mg/kg
[2] = Cg 6, IV 80 mg/kg/inj days 6,8,10,14,16, total 400 mg/kg
[3] = Cg 7, IV 50 mg/kg/inj days 6,8,10,13,15, total 250 mg/kg

In the case of `O=P1(N(CCCl)CCCl)NCCCO1` (stereo not drawn) [Cytoxan], the “% Body Wt change at nadir” value [1] is reported as −9.4%, the “Activity Rating” value [1] is reported as “no meaningful activity” and the “CR's” value [1] is reported as 0/5. The “Drug Deaths” value [1] was 0/5, the “Growth Delay” value [1] was 1 days and the “Log Kill” value [1] was 0.2. The “Median time for tumors to 700 mg (range)” value [1] was 14 (12-15) days, the “PR's” value [1] was 0/5 and the “Tumor Free day-156” value [1] was 0/5. For the same compound, the day of nadir [1] was 12 days.

In the case of `CC(Oc1ccc(Oc2cnc3ccc(Cl)cc3n2)cc1)C(=O)[O-].[Na+]` (stereo not drawn) [XK469-R], the “% Body Wt change at nadir” value [2] is reported as −8.1%, the “Activity Rating” value [2] is reported as “+ (0.7-1.2)” and the “CR's” value [2] is reported as 0/6. The “Drug Deaths” value [2] was 0/6, the “Growth Delay” value [2] was 5 days and the “Log Kill” value [2] was 0.9. The “Median time for tumors to 700 mg (range)” value [2] was 18 (15-20) days, the “PR's” value [2] was 0/6 and the “Tumor Free day-156” value [2] was 0/6. For the same compound, the day of nadir [2] was 13 days, the “% Body Wt change at nadir” value [3] was −4.0% and the “Activity Rating” value [3] was “inactive”. The “CR's” value [3] was 0/6, the “Drug Deaths” value [3] was 0/6 and the “Growth Delay in Days” value [3] was “none”. The “Log Kill” value [3] was “none”, the “Median time for tumors to 700 mg (range)” value [3] was 13 (11.5-20) days and the “PR's” value [3] was 0/6. The “Tumor Free day-156” value [3] was 0/6 and the day of nadir [3] was 13 days.
